This note sets out measurements from ChEMBL document CHEMBL6109055, “Naphtho[1,2-b][1,4]diazepinedione-Based P2X4 Receptor Antagonists from Structure-Activity Relationship Studies toward PET Tracer Development” (J Med Chem, 2025).

SMILES strings stand for the structures.

P2X purinoceptor 4, sequence (Q99571 whole entry): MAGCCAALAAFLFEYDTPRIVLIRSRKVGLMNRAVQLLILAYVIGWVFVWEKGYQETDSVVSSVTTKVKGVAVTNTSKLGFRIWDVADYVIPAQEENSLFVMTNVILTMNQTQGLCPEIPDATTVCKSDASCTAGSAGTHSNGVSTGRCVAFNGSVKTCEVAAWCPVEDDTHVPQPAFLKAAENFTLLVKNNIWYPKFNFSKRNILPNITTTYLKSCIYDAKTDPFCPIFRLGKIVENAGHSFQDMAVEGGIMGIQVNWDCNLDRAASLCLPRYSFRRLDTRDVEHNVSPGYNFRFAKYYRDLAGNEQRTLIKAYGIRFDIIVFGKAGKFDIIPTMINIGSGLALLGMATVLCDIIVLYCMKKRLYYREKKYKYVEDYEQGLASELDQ

The assay concerns the target P2X purinoceptor 4 (Homo sapiens, UniProt Q99571). As to the kind of experiment: Antagonist activity at human P2X4 receptor overexpressed in human 1321N1 cells assessed as inhibition of ATP-induced calcium responses by Fluo-4 AM/Ca2+ Flux assay. Format: cell-based. The conditions noted are these: read-out: IC50. (In general: A change in cytosolic calcium serves as a functional read-out for many receptors and channels.)
Usually IC50 stands for the concentration needed to halve the response being measured. On to `COc1cc(F)ccc1S(=O)(=O)Nc1ccc(N2C(=O)CC(=O)Nc3c2ccc2ccccc32)cc1`, for which the IC50 stood at 59 nM. For `O=C1CC(=O)N(c2ccc(NS(=O)(=O)c3ccc(F)cc3Br)cc2)c2ccc3ccccc3c2N1`, the IC50 stood at 64 nM. As for `O=C1CC(=O)N(c2ccc(NS(=O)(=O)c3ccccc3F)cc2)c2ccc3ccccc3c2N1`, the figure is 1170 nM. With `O=C1CC(=O)N(c2ccc(NS(=O)(=O)Cc3ccccc3Cl)cn2)c2ccc3ccccc3c2N1` the figure was 17 nM. With `Cc1ccc(Cl)c(S(=O)(=O)Nc2ccc(N3C(=O)CC(=O)Nc4c3ccc3ccccc43)cc2)c1` the figure was 373 nM; with `O=C1CC(=O)N(c2ccc(NS(=O)(=O)c3ccccc3Br)cc2)c2ccc3ccccc3c2N1`, 240 nM; with `O=C1CC(=O)N(c2ccc(NS(=O)(=O)Cc3ccc(Br)cc3Cl)cc2)c2ccc3ccccc3c2N1`, 531 nM. For the molecule `Cc1ccc(F)cc1S(=O)(=O)Nc1ccc(N2C(=O)CC(=O)Nc3c2ccc2ccccc32)cc1`, the IC50 is 179 nM. As for `O=C1CC(=O)N(c2ccc(NS(=O)(=O)c3cccnc3[N+](=O)[O-])cc2)c2ccc3ccccc3c2N1`, the half-maximal inhibitory concentration (IC50) stood at 1000 nM. As for `COc1ccc(Br)cc1S(=O)(=O)Nc1ccc(N2C(=O)CC(=O)Nc3c2ccc2ccccc32)cc1`, the figure is 2330 nM; as for `O=C1CC(=O)N(c2ccc(NS(=O)(=O)c3c(Cl)cccc3Cl)cc2)c2ccc3ccccc3c2N1`, 650 nM; as for `Cc1cccc(Cl)c1S(=O)(=O)Nc1ccc(N2C(=O)CC(=O)Nc3c2ccc2ccccc32)cc1`, 385 nM. Regarding `O=C1CC(=O)N(c2ccc(NC(=O)c3ccccc3)cc2)c2ccc3ccccc3c2N1`, the half-maximal inhibitory concentration (IC50) was determined as 585 nM. As for `O=C1CC(=O)N(c2ccc(NS(=O)(=O)c3ccc(F)cc3)cc2)c2ccc3ccccc3c2N1`, the figure is 24800 nM; as for `O=C1CC(=O)N(c2ccc(NS(=O)(=O)c3ccccc3Cl)cc2)c2ccc3ccccc3c2N1`, 445 nM. With `COc1cc(Br)ccc1S(=O)(=O)Nc1ccc(N2C(=O)CC(=O)Nc3c2ccc2ccccc32)cc1` the figure was 344 nM; with `N#Cc1ccc(S(=O)(=O)Nc2ccc(N3C(=O)CC(=O)Nc4c3ccc3ccccc43)cc2)c(Cl)c1`, 14100 nM. As for `COc1ccc(S(=O)(=O)Nc2ccc(N3C(=O)CC(=O)Nc4c3ccc3ccccc43)cc2)cc1`, the figure is 3950 nM; as for `O=C1CC(=O)N(c2ccc(NS(=O)(=O)c3cccnc3Cl)cc2)c2ccc3ccccc3c2N1`, 318 nM; as for `O=C1CC(=O)N(c2ccc(NS(=O)(=O)c3ccc(B(O)O)cc3Cl)cc2)c2ccc3ccccc3c2N1`, 891 nM. Take `Nc1ccc(N2C(=O)CC(=O)Nc3c2ccc2ccccc32)nc1`: the IC50 was determined as 6460 nM. With `O=C1CC(=O)N(c2ccc(NS(=O)(=O)c3cc(Br)ccc3Cl)cc2)c2ccc3ccccc3c2N1` the figure was 175 nM; with `COc1ccccc1S(=O)(=O)Nc1ccc(N2C(=O)CC(=O)Nc3c2ccc2ccccc32)cc1`, 90 nM. As for `O=C(Cc1cc(Br)ccc1Cl)Nc1ccc(N2C(=O)CC(=O)Nc3c2ccc2ccccc32)cc1`, the figure is 1000 nM; as for `Nc1ccc(N2C(=O)CC(=O)Nc3c2ccc2ccccc32)cc1`, 990 nM. As for `Nc1ccc(N2C(=O)CC(=O)Nc3c2ccc2ccccc32)cn1`, the figure is 9920 nM.

With `Cc1cc(B(O)O)ccc1S(=O)(=O)Nc1ccc(N2C(=O)CC(=O)Nc3c2ccc2ccccc32)cc1`, the IC50 turned out to be 48 nM. As for `O=C1CC(=O)N(c2ccccc2)c2ccc3ccccc3c2N1`, the figure is 9280 nM; as for `CN1C(=O)CC(=O)N(c2ccc(N(C)S(=O)(=O)c3ccccc3)cc2)c2ccc3ccccc3c21`, above 10000 nM. As to `CN(c1ccc(N2C(=O)CC(=O)Nc3c2ccc2ccccc32)cc1)S(=O)(=O)c1ccccc1`, the IC50 stood at 683 nM. For `Cc1cc(Br)ccc1CS(=O)(=O)Nc1ccc(N2C(=O)CC(=O)Nc3c2ccc2ccccc32)cc1`, the IC50 came to 97 nM. With `O=C1CC(=O)N(c2ccc(NC(=O)c3ccccc3F)cc2)c2ccc3ccccc3c2N1`, the IC50 is 2300 nM. As for `O=C1CC(=O)N(c2ccc(NS(=O)(=O)Cc3ccc(B(O)O)cc3Cl)cc2)c2ccc3ccccc3c2N1`, the half-maximal inhibitory concentration (IC50) stood at 295 nM.

With `O=C1CC(=O)N(c2ccc(NS(=O)(=O)Cc3c(Cl)cccc3Cl)cc2)c2ccc3ccccc3c2N1`, the IC50 stood at 74 nM. As for `O=C1CC(=O)N(c2ccc(NS(=O)(=O)Cc3ccccc3)cc2)c2ccc3ccccc3c2N1`, the figure is 191 nM; as for `O=C1CC(=O)N(c2ccc(NC(=O)c3cccnc3F)cc2)c2ccc3ccccc3c2N1`, 2410 nM. With `O=C1CC(=O)N(c2ccc(NS(=O)(=O)c3ccc(Br)cc3Cl)cc2)c2ccc3ccccc3c2N1` the figure was 1590 nM; with `O=C1CC(=O)N(c2ccc(NS(=O)(=O)c3cccc4ccccc34)cc2)c2ccc3ccccc3c2N1`, 1650 nM; with `O=C(Cc1cc(F)ccc1Cl)Nc1ccc(N2C(=O)CC(=O)Nc3c2ccc2ccccc32)cc1`, 442 nM. With `COc1ccc(F)cc1S(=O)(=O)Nc1ccc(N2C(=O)CC(=O)Nc3c2ccc2ccccc32)cc1` the figure was 473 nM; with `O=C1CC(=O)N(c2ccc(NS(=O)(=O)Cc3ccc(F)cc3Br)cc2)c2ccc3ccccc3c2N1`, 76 nM; with `O=C1CC(=O)N(c2ccc(NC(=O)c3cccnc3Cl)cc2)c2ccc3ccccc3c2N1`, 780 nM. `O=C1CC(=O)N(c2ccc(NS(=O)(=O)Cc3ccc(F)cc3)cc2)c2ccc3ccccc3c2N1`: the IC50 was found to be 88 nM. As for `O=C1CC(=O)N(c2ccc(NS(=O)(=O)Cc3c(F)cccc3Cl)cc2)c2ccc3ccccc3c2N1`, the figure is 108 nM; as for `Cc1ccccc1S(=O)(=O)Nc1ccc(N2C(=O)CC(=O)Nc3c2ccc2ccccc32)cc1`, 115 nM.

As to `O=C1CC(=O)N(c2ccc(NC(=O)c3ccccc3Cl)cc2)c2ccc3ccccc3c2N1`, the IC50 came to 481 nM.

For the molecule `O=C1CC(=O)N(c2ccc(NC(=O)c3cccnc3[N+](=O)[O-])cc2)c2ccc3ccccc3c2N1`, the IC50 amounted to 2280 nM.

With `O=C1CC(=O)N(c2ccc(NS(=O)(=O)C3CCCCC3)cc2)c2ccc3ccccc3c2N1`, the IC50 amounted to 2580 nM. Take `O=C1CC(=O)N(c2ccc(NS(=O)(=O)c3ccccc3I)cc2)c2ccc3ccccc3c2N1`: the IC50 was found to be 264 nM. As for `CNCC[C@H](Oc1cccc2ccccc12)c1cccs1` [DULOXETINE], the figure is 5880 nM; as for `O=C1CC(=O)N(c2ccc(NS(=O)(=O)c3cc(C(F)(F)F)ccc3Cl)cc2)c2ccc3ccccc3c2N1`, 2730 nM.

In the case of `O=C1CC(=O)N(c2ccc(NS(=O)(=O)Cc3ccccc3Cl)nc2)c2ccc3ccccc3c2N1`, the IC50 is 76 nM. With `Cc1cc(Br)ccc1S(=O)(=O)Nc1ccc(N2C(=O)CC(=O)Nc3c2ccc2ccccc32)cc1` the figure was 263 nM. Take `COc1ccc(S(=O)(=O)Nc2ccc(N3C(=O)CC(=O)Nc4c3ccc3ccccc43)cc2)c(Cl)c1`: the concentration for half-maximal inhibition (IC50) was 5970 nM.

Regarding `Cc1cc(B(O)O)ccc1CS(=O)(=O)Nc1ccc(N2C(=O)CC(=O)Nc3c2ccc2ccccc32)cc1`, the IC50 was 372 nM. With `O=C1CC(=O)N(c2ccc(NS(=O)(=O)Cc3cc(F)ccc3Cl)cc2)c2ccc3ccccc3c2N1` the figure was 81 nM; with `O=C1CC(=O)N(c2ccc(NS(=O)(=O)c3ccc(C(F)(F)F)cc3Cl)cc2)c2ccc3ccccc3c2N1`, 3390 nM.
